# ChEMBL document CHEMBL4765261, “Design, synthesis, and biological evaluation of heterotetracyclic quinolinone derivatives as anticancer agents targeting topoisomerases” (Eur J Med Chem, 2020)
# The source made the active and inactive calls. The rule behind the calls is not given here.
# Experiments:
# [1] = Cytotoxicity against human MDA-MB-231 cells assessed as reduction in cell viability at 10 uM after 72 hrs by MTT assay relative to control; type: cell-based; settings: read-out: INH
# MDA-MB-231 [2] = assay: Cell cycle arrest in human MDA-MB-231 cells assessed as accumulation at sub-G1 phase at 20 uM after 24 hrs by propidium iodide staining based flow cytometric analysis (reference value: 0.72%); type: functional
# [3] = biological target: DNA topoisomerase 2-alpha (Homo sapiens) (UniProt P11388); assay: Inhibition of human recombinant topoisomerase 2alpha expressed in baculovirus-infected insect cells assessed as inhibition of DNA relaxation at 3 uM incubated for 45 mins by ethidium bromide staining based agarose gel electrophoresis method
# DNA topoisomerase 2-alpha (Homo sapiens), sequence (P11388 whole entry): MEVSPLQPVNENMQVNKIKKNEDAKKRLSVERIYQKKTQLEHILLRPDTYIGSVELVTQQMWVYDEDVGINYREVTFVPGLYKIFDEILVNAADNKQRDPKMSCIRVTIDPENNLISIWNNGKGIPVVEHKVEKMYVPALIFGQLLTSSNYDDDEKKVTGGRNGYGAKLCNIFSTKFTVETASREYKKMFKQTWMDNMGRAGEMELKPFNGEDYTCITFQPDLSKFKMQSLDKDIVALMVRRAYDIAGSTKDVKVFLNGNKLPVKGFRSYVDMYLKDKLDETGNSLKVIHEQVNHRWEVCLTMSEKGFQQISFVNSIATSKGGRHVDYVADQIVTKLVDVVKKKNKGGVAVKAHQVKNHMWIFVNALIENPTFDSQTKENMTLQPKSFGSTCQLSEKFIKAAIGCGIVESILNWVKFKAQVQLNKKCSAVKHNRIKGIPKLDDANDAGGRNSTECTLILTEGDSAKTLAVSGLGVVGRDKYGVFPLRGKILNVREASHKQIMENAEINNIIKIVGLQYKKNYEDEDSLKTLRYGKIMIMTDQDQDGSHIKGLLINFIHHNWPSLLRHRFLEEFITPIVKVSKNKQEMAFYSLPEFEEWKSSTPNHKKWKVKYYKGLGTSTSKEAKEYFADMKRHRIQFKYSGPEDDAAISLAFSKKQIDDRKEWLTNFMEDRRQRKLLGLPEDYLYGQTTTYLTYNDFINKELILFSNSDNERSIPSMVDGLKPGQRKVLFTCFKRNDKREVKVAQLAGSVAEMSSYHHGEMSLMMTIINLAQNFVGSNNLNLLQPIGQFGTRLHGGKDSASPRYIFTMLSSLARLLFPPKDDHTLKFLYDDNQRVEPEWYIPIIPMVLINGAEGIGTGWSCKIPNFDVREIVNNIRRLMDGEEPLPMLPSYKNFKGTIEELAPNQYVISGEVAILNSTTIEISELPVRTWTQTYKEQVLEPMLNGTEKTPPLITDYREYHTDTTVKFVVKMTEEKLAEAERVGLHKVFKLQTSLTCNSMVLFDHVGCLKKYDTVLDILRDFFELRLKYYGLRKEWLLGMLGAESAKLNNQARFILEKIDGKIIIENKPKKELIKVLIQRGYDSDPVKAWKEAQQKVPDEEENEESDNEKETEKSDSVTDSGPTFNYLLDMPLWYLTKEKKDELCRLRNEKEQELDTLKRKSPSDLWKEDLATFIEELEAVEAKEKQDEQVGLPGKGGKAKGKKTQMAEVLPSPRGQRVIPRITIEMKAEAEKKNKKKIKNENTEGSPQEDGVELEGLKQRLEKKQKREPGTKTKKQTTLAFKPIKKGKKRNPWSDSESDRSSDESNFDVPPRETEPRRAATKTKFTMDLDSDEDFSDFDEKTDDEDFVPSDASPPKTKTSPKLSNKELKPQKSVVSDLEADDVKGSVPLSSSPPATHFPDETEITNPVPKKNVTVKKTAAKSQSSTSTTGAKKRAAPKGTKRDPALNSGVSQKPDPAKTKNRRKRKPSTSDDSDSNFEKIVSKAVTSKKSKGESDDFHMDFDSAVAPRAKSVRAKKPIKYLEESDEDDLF
# MCF7 = assay: Anticancer activity against human MCF7 cells assessed as inhibition of cell proliferation measured after 72 hrs by MTT assay; type: functional, cell-based; settings: MCF7, 72 h
# MDA-MB-468 = assay: Anticancer activity against human MDA-MB-468 cells assessed as inhibition of cell proliferation measured after 72 hrs by MTT assay; type: functional, cell-based; settings: MDA-MB-468, 72 h
# [4] = biological target: T1, DNA topoisomerase 1 (Homo sapiens) (UniProt P11387); assay: Inhibition of human recombinant topoisomerase 1 expressed in baculovirus-infected insect cells assessed as inhibition of DNA relaxation at 1 uM incubated for 30 mins by ethidium bromide staining based agarose gel electrophoresis method
# T1 sequence (whole entry): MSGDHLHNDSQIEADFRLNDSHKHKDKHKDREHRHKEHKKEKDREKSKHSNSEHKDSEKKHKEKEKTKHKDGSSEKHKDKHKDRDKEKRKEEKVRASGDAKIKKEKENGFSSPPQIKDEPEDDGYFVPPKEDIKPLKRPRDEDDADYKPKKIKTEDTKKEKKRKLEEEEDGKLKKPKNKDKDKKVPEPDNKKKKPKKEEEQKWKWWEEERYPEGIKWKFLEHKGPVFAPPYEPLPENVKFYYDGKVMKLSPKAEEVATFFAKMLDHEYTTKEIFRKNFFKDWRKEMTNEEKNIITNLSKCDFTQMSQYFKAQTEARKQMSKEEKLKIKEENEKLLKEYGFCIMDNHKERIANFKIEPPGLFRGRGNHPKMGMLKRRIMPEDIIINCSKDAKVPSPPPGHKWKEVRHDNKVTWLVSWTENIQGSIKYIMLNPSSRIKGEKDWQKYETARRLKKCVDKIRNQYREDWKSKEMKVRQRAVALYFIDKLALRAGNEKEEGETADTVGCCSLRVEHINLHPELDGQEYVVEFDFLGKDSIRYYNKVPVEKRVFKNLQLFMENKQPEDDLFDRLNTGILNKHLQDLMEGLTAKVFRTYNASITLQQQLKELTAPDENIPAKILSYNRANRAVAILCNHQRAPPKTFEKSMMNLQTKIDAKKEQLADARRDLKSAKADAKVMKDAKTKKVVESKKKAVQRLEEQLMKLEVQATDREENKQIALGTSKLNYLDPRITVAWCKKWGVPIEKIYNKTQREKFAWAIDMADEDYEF
# [5] = biological target: T1, DNA topoisomerase 1 (Homo sapiens); assay: Inhibition of human recombinant topoisomerase 1 expressed in baculovirus-infected insect cells assessed as inhibition of DNA relaxation at 3 uM incubated for 30 mins by ethidium bromide staining based agarose gel electrophoresis method
# MDA-MB-231 [6] = assay: Anticancer activity against human MDA-MB-231 cells assessed as inhibition of cell proliferation measured after 72 hrs by MTT assay; type: functional, cell-based; settings: MDA-MB-231, 72 h
# MDA-MB-231 [7] = assay: Cell cycle arrest in human MDA-MB-231 cells assessed as accumulation at sub-G1 phase at 10 uM after 24 hrs by propidium iodide staining-based flow cytometric analysis (reference value: 0.72%); type: functional
# [8] = biological target: T1, DNA topoisomerase 1 (Homo sapiens); assay: Inhibition of human recombinant topoisomerase 1 expressed in baculovirus-infected insect cells assessed as inhibition of DNA relaxation at 10 uM incubated for 30 mins by ethidium bromide staining based agarose gel electrophoresis method
# HCT-116 = assay: Anticancer activity against human HCT-116 cells assessed as inhibition of cell proliferation measured after 72 hrs by MTT assay; type: functional, cell-based; settings: HCT-116, 72 h
# [9] = biological target: DNA topoisomerase 2-alpha (Homo sapiens) (UniProt P11388); assay: Inhibition of human recombinant topoisomerase 2alpha expressed in baculovirus-infected insect cells assessed as inhibition of DNA relaxation at 1 uM incubated for 45 mins by ethidium bromide staining based agarose gel electrophoresis method
# NCI-H1299 = assay: Anticancer activity against human H1299 cells assessed as inhibition of cell proliferation measured after 72 hrs by MTT assay; type: functional, cell-based; settings: NCI-H1299, 72 h
# MDA-MB-231 [10] = assay: Induction of DNA damage in human MDA-MB-231 cells assessed as phosphorylation of Ser 139 of histone H2AX measured after 24 hrs by western blotting analysis; type: functional, cell-based
# MDA-MB-231 [11] = assay: Antiproliferative activity against human […] at 2.5 uM after 72 hrs by MTT assay relative to control; type: functional, cell-based
# MCF-10A [12] = assay: Induction of cell cycle arrest in human MCF-10A cells assessed as increase in accumulation of cells at sub-G1 phase at 2.5 uM incubated for 24 hrs by propidium iodide based flow cytometry analysis
# [13] = biological target: T1, DNA topoisomerase 1 (Homo sapiens); assay: Poison activity at human recombinant topoisomerase I assessed as accumulation of supercoiled DNA at 10 uM measured after 30 mins by ethidium bromide staining based agarose gel electrophoresis
# MDA-MB-231 [14] = assay: Induction of apoptosis in human MDA-MB-231 cells assessed as increase in cleaved caspase-9 level incubated for 24 hrs by Western blot analysis; type: functional, cell-based
# MDA-MB-231 [15] = assay: Cell cycle arrest in human MDA-MB-231 cells assessed as accumulation at sub-G1 phase at 4 uM after 24 hrs by propidium iodide staining based flow cytometric analysis (reference value: 0.72%); type: functional
# MDA-MB-231 [16] = assay: Cell cycle arrest in human MDA-MB-231 assessed as increase accumulation at G2/M phase incubated for 12 hrs by propidium iodide staining based flow cytometric analysis relative to control; type: functional
# [17] = biological target: T1, DNA topoisomerase 1 (Homo sapiens); assay: Poison activity at human recombinant topoisomerase I assessed as accumulation of supercoiled DNA by measuring restricted DNA mobility at 30 uM measured after 30 mins by ethidium bromide staining based agarose gel electrophoresis
# [18] = biological target: T1, DNA topoisomerase 1 (Homo sapiens); assay: Poison activity at human recombinant topoisomerase I in human MDA-MB-231 cells assessed as increase in chromatin incubated for 30 mins by Western blot analysis; type: cell-based
# MDA-MB-231 [19] = assay: Induction of apoptosis in human MDA-MB-231 cells assessed as increase in cleaved caspase-8 level incubated for 24 hrs by Western blot analysis; type: functional, cell-based
# [20] = biological target: DNA topoisomerase 2-alpha (Homo sapiens) (UniProt P11388); assay: Poison activity at human recombinant topoisomerase II alpha in human MDA-MB-231 cells assessed as increase in chromatin incubated for 30 mins by Western blot analysis; type: cell-based
# MDA-MB-231 [21] = assay: Induction of cell cycle arrest in human […] assessed as increase in accumulation of cells at sub-G1 phase at 2.5 uM incubated for 24 hrs by propidium iodide based flow cytometry analysis; type: functional
# MDA-MB-231 [22] = assay: Cell cycle arrest in human MDA-MB-231 cells assessed as accumulation at sub-G1 phase at 2 uM after 24 hrs by propidium iodide staining-based flow cytometric analysis (reference value: 0.72%); type: functional
# MCF-10A [23] = assay: Antiproliferative activity against human MCF-10A cells at 2.5 uM after 72 hrs by MTT assay relative to control; type: cell-based
smiles,measurement,setting,value
CCNc1nc2ccccc2c2c(=O)c3cccc(F)c3sc12,"cytotoxicity at 72 h, 10 µM",[1],< 20%
O=C(Nc1nc2ccccc2c2c(=O)c3cc(Cl)ccc3sc12)c1ccccn1,"cytotoxicity at 72 h, 10 µM",[1],< 20%
NCCCNc1nc2ccccc2c2c(=O)c3cccc(Cl)c3sc12,Activity,MDA-MB-231 [2],35.7%
same,"cytotoxicity at 72 h, 10 µM",[1],> 95%
same,inhibition,[3],Active
same,IC50,MCF7,4.49 µM
same,IC50,MDA-MB-468,0.27 µM
same,inhibition,[4],Active
same,inhibition of DNA relaxation (active/inactive),[5],Active
same,IC50,MDA-MB-231 [6],2.19 µM
same,Activity,MDA-MB-231 [7],9.8%
same,inhibition,[8],100%
same,IC50,HCT-116,2.51 µM
same,inhibition,[9],100%
same,IC50,NCI-H1299,3.69 µM
CCCNc1nc2ccccc2c2c(=O)c3ccc(Cl)cc3sc12,"cytotoxicity at 72 h, 10 µM",[1],< 20%
CCNc1nc2ccccc2c2c(=O)c3cc(C)ccc3sc12,"cytotoxicity at 72 h, 10 µM",[1],21%
CCCNc1nc2ccccc2c2c(=O)c3cccc(Cl)c3sc12,"cytotoxicity at 72 h, 10 µM",[1],< 20%
CCCNc1nc2ccccc2c2c(=O)c3cc(OC)ccc3sc12,"cytotoxicity at 72 h, 10 µM",[1],< 20%
same,Activity,[8],Active
CCNc1nc2ccccc2c2c(=O)c3cccc(OC)c3sc12,"cytotoxicity at 72 h, 10 µM",[1],21%
CCCNc1nc2ccccc2c2c(=O)c3cc(Cl)ccc3sc12,"cytotoxicity at 72 h, 10 µM",[1],21%
COc1ccc(CNc2nc3ccccc3c3c(=O)c4cc(Cl)ccc4sc23)cc1,"cytotoxicity at 72 h, 10 µM",[1],21%
COc1ccc2sc3c(NCCCN)nc4ccccc4c3c(=O)c2c1,"cytotoxicity at 72 h, 10 µM",[1],> 95%
same,inhibition,[3],Active
same,IC50,MCF7,> 5 µM
same,IC50,MDA-MB-468,3.04 µM
same,inhibition,[4],Active
same,inhibition of DNA relaxation (active/inactive),[5],Active
same,IC50,MDA-MB-231 [6],4.5 µM
same,inhibition,[8],100%
same,IC50,HCT-116,> 5 µM
same,IC50,NCI-H1299,> 5 µM
Cc1ccc2sc3c(NCCCN)nc4ccccc4c3c(=O)c2c1,"cytotoxicity at 72 h, 10 µM",[1],> 95%
same,inhibition,[3],Active
same,IC50,MCF7,> 5 µM
same,IC50,MDA-MB-468,2.89 µM
same,inhibition,[4],Active
same,inhibition of DNA relaxation (active/inactive),[5],Active
same,IC50,MDA-MB-231 [6],3.69 µM
same,inhibition,[8],100%
same,IC50,HCT-116,4.22 µM
same,IC50,NCI-H1299,> 5 µM
NCCCNc1nc2ccccc2c2c(=O)c3cc(Cl)ccc3sc12,"cytotoxicity at 72 h, 10 µM",[1],> 95%
same,inhibition,[3],Active
same,IC50,MCF7,4.36 µM
same,IC50,MDA-MB-468,1.09 µM
same,inhibition,[4],Active
same,inhibition of DNA relaxation (active/inactive),[5],Active
same,IC50,MDA-MB-231 [6],3.39 µM
same,IC50,HCT-116,3.54 µM
same,IC50,NCI-H1299,4.73 µM
NCCCNc1nc2ccccc2c2c(=O)c3cc(F)ccc3sc12,"cytotoxicity at 72 h, 10 µM",[1],> 95%
same,inhibition,[3],Active
same,IC50,MCF7,3.98 µM
same,IC50,MDA-MB-468,1.24 µM
same,inhibition,[4],Active
same,inhibition of DNA relaxation (active/inactive),[5],Active
same,IC50,MDA-MB-231 [6],2.9 µM
same,inhibition,[8],100%
same,IC50,HCT-116,3.05 µM
same,IC50,NCI-H1299,3.02 µM
CCNc1nc2ccccc2c2c(=O)c3cc(F)cc(Cl)c3sc12,"cytotoxicity at 72 h, 10 µM",[1],21%
O=c1c2cccc(F)c2sc2c(NCc3ccccc3)nc3ccccc3c12,"cytotoxicity at 72 h, 10 µM",[1],< 20%
COc1cccc2c(=O)c3c(sc12)c(NCc1ccccc1)nc1ccccc13,"cytotoxicity at 72 h, 10 µM",[1],21%
O=c1c2cc(F)ccc2sc2c(NCc3ccccc3)nc3ccccc3c12,"cytotoxicity at 72 h, 10 µM",[1],21%
CCCNc1nc2ccccc2c2c(=O)c3cc(F)ccc3sc12,"cytotoxicity at 72 h, 10 µM",[1],21%
Cc1ccc2sc3c(NCc4ccccc4)nc4ccccc4c3c(=O)c2c1,"cytotoxicity at 72 h, 10 µM",[1],21%
O=c1c2cc(F)ccc2sc2c(NCc3cccnc3)nc3ccccc3c12,"cytotoxicity at 72 h, 10 µM",[1],21%
NCCNc1nc2ccccc2c2c(=O)c3cc(F)cc(Cl)c3sc12,Activity,MDA-MB-231 [10],Active
same,Activity,MDA-MB-231 [11],Active
same,Activity,MCF-10A [12],1.6%
same,Activity,[13],Active
same,Activity,MDA-MB-231 [14],Active
same,Activity,MDA-MB-231 [15],39.4%
same,"cytotoxicity at 72 h, 10 µM",[1],> 95%
same,inhibition,[3],Active
same,IC50,MCF7,0.8 µM
same,IC50,MDA-MB-468,0.22 µM
same,inhibition,[4],Active
same,Activity,MDA-MB-231 [16],Active
same,inhibition of DNA relaxation (active/inactive),[5],Active
same,IC50,MDA-MB-231 [6],1.14 µM
same,inhibition,[8],100%
same,IC50,HCT-116,0.53 µM
same,inhibition,[9],100%
same,Activity,[17],Active
same,Activity,[18],Active
same,Activity,MDA-MB-231 [19],Active
same,Activity,[20],Active
same,IC50,NCI-H1299,0.53 µM
same,Activity,MDA-MB-231 [21],70.2%
same,Activity,MDA-MB-231 [22],3.6%
same,Activity,MCF-10A [23],Non-Toxic
CCCNc1nc2ccccc2c2c(=O)c3c(Cl)cccc3sc12,"cytotoxicity at 72 h, 10 µM",[1],< 20%
